The source of these data is US9364482B2, “Substituted benzofuran compounds and methods of use thereof for the treatment of viral diseases” (priority 2013, dated 2016).

The subject of one test is HCV replicon genotype 1a. The test is described as follows: microbe, parasite or virus in culture. The format is cell-based, hepatitis C virus (HCV). To be noted: Hepatitis C virus, 96 h, read-out: 1a IC50 (nM).
The test system of another test is HCV replicon genotype 1b. The test is described as follows: microbe, parasite or virus in culture. The test is classed as cell-based, hepatitis C virus (HCV). To be noted: Hepatitis C virus, 96 h, read-out: 1b IC50 (nM).

Usually IC50 stands for the concentration needed to halve the response being measured. Take `CNC(=O)c1c(-c2ccc(F)cc2)oc2cc(N(C)S(C)(=O)=O)c(-c3cc4c(=O)n(Cc5ccc(F)cc5)nnc4cc3C)cc12` [Compound 72, 5-[3-(4-fluorobenzyl)-7-methyl-4-oxo-3,4-dihydro-1,2,3-benzotriazin-6-yl]-2-(4-fluorophenyl)-N-methyl-6-[methyl(methylsulfonyl)amino]-1-benzofuran-3-carboxamide]: the results for the IC50 in the test with HCV replicon genotype 1a and in the test on HCV replicon genotype 1b were 8.62 nM and 6.47 nM, respectively.
In the same order, the values of `CNC(=O)c1c(-c2ccc(F)cc2)oc2cc(N(C)S(C)(=O)=O)c(-c3cc4c(=O)n(Cc5ccc(F)cc5)nnc4cc3Cl)cc12` [Compound 73, 5-[7-chloro-3-(4-fluorobenzyl)-4-oxo-3,4-dihydro-1,2,3-benzotriazin-6-yl]-2-(4-fluorophenyl)-N-methyl-6-[methyl(methylsulfonyl)amino]-1-benzofuran-3-carboxamide] are 11.6 nM and 7.65 nM.
On to `CNC(=O)c1c(-c2ccc(F)cc2)oc2cc(N(C)S(C)(=O)=O)c(-c3cc(C)c4nnn(Cc5ccc(F)cc5)c(=O)c4c3)cc12` [Compound 74, 5-[3-(4-fluorobenzyl)-8-methyl-4-oxo-3,4-dihydro-1,2,3-benzotriazin-6-yl]-2-(4-fluorophenyl)-N-methyl-6-[methyl(methylsulfonyl)amino]-1-benzofuran-3-carboxamide], for which the IC50 in the test with HCV replicon genotype 1a came out at 11.9 nM; in the test with HCV replicon genotype 1b it was 7.08 nM.
